# According to PMC9090415, “Discovery of small molecule inhibitors of Plasmodium falciparum apicoplast DNA polymerase” (Journal of Enzyme Inhibition and Medicinal Chemistry, 2022):
# Target: T1, bacteriophage T4 DNA polymerase (Enterobacteria phage T4, UniProt P04415)
# T1 construct: made in house
# T1 sequence (P04415 1-898): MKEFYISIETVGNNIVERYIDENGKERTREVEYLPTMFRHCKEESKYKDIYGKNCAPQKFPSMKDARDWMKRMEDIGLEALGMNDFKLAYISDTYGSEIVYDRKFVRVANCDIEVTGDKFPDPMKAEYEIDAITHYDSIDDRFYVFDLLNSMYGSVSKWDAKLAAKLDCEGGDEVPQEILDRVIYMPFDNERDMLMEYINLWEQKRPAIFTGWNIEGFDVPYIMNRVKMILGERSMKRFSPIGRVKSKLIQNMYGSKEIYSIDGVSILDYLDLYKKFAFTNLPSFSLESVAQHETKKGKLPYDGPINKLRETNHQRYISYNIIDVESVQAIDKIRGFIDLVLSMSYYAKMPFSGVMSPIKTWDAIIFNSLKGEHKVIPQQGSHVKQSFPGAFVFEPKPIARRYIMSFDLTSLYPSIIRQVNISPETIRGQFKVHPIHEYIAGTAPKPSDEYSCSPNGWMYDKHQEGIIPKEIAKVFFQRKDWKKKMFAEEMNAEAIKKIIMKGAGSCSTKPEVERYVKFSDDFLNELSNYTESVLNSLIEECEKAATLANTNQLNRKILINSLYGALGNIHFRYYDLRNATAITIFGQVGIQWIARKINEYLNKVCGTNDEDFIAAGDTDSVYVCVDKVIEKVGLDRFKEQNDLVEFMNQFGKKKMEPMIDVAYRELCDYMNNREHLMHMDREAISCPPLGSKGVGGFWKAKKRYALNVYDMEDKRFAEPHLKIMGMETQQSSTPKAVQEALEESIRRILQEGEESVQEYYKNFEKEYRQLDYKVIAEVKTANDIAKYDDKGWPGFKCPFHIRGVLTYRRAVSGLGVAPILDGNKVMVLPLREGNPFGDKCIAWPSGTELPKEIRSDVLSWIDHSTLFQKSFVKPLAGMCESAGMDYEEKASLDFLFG
# Test: Counter-screen against bacteriophage T4 DNA polymerase
# Assay type: biochemical
# Conditions: for % inhibition T4 10' 2.5 / % inhibition T4 10' 5 / % inhibition T4 10' 10 / % inhibition T4 10' 20 / % inhibition T4 10' 40 / % inhibition T4 10' 80: read at 10'
# Outline: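 Purified T4 DNA polymerase, a B-family enzyme, served as the counter-screen enzyme. Compounds were tested in dose-response format and IC50 values were derived.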
smiles,measurement,setting,value
"Cc1ccc(-n2nnc(C(=O)O)c2-c2ccccn2)c(F)c1 [Molecule 54, Cc1ccc(c(c1)F)n1nnc(c1c1ccccn1)C(=O)O]",% inhibition T4 10',"DRC-2, concentration 2.5",18%
same,% inhibition T4 10',"DRC-2, concentration 5",23%
same,% inhibition T4 10',"DRC-2, concentration 10",30%
same,% inhibition T4 10',"DRC-2, concentration 40",27%
same,% inhibition T4 10',"DRC-2, concentration 80",24%
same,% inhibition T4 40',"DRC-2, concentration 2.5",18%
same,% inhibition T4 40',"DRC-2, concentration 5",23%
same,% inhibition T4 40',"DRC-2, concentration 10",30%
same,% inhibition T4 40',"DRC-2, concentration 40",27%
same,% inhibition T4 40',"DRC-2, concentration 80",24%
same,% inhibition T4 90',"DRC-2, concentration 2.5",17%
same,% inhibition T4 90',"DRC-2, concentration 10",27%
same,% inhibition T4 90',"DRC-2, concentration 20",22%
same,% inhibition T4 90',"DRC-2, concentration 40",23%
same,% inhibition T4 90',"DRC-2, concentration 80",22%
same,% inhibition T4 180',"DRC-2, concentration 10",22%
same,% inhibition T4 180',"DRC-2, concentration 20",17%
same,% inhibition T4 180',"DRC-2, concentration 40",20%
same,% inhibition T4 180',"DRC-2, concentration 80",20%
"COc1ccc(CNC(=O)Cn2nc3c(c2NC(=O)Cc2cccs2)CSC3)cc1 [Molecule 55, COc1ccc(cc1)CNC(=O)Cn1nc2c(c1NC(=O)Cc1cccs1)CSC2]",% inhibition T4 10',"DRC-2, concentration 5",18%
same,% inhibition T4 10',"DRC-2, concentration 10",26%
same,% inhibition T4 10',"DRC-2, concentration 20",26%
same,% inhibition T4 40',"DRC-2, concentration 10",26%
same,% inhibition T4 40',"DRC-2, concentration 20",28%
same,% inhibition T4 40',"DRC-2, concentration 80",38%
same,% inhibition T4 90',"DRC-2, concentration 20",26%
same,% inhibition T4 90',"DRC-2, concentration 80",38%
same,% inhibition T4 180',"DRC-2, concentration 10",18%
same,% inhibition T4 180',"DRC-2, concentration 40",28%
"Cc1ccc(N2CCC(NC(=O)Cc3cccs3)C2=O)cc1C (centres unmarked) [Molecule 57, O=C(NC1CCN(C1=O)c1ccc(c(c1)C)C)Cc1cccs1]",% inhibition T4 10' 2.5,"DRC-1, concentration 2.5",-2.9635%
same,% inhibition T4 10' 5,"DRC-1, concentration 5",6.066%
same,% inhibition T4 10' 10,"DRC-1, concentration 10",19.8361%
same,% inhibition T4 10' 20,"DRC-1, concentration 20",23.1597%
same,% inhibition T4 10' 40,"DRC-1, concentration 40",29.7521%
same,% inhibition T4 10' 80,"DRC-1, concentration 80",29.7097%
same,% inhibition T4 70' 2.5,"DRC-1, read at 70', concentration 2.5",-3.783%
same,% inhibition T4 70' 5,"DRC-1, read at 70', concentration 5",0.9049%
same,% inhibition T4 70' 10,"DRC-1, read at 70', concentration 10",15.0423%
same,% inhibition T4 70' 20,"DRC-1, read at 70', concentration 20",17.1422%
same,% inhibition T4 70' 40,"DRC-1, read at 70', concentration 40",24.1448%
same,% inhibition T4 70' 80,"DRC-1, read at 70', concentration 80",21.6253%
same,% inhibition T4 130' 2.5,"DRC-1, read at 130', concentration 2.5",-5.326%
same,% inhibition T4 130' 5,"DRC-1, read at 130', concentration 5",-0.359%
same,% inhibition T4 130' 10,"DRC-1, read at 130', concentration 10",12.5508%
same,% inhibition T4 130' 20,"DRC-1, read at 130', concentration 20",13.7416%
same,% inhibition T4 130' 40,"DRC-1, read at 130', concentration 40",21.2189%
same,% inhibition T4 130' 80,"DRC-1, read at 130', concentration 80",19.4508%
same,% inhibition T4 10' 2.5,"DRC-2, concentration 2.5",14%
same,% inhibition T4 10' 5,"DRC-2, concentration 5",12%
same,% inhibition T4 10' 10,"DRC-2, concentration 10",20%
same,% inhibition T4 10' 20,"DRC-2, concentration 20",23%
same,% inhibition T4 10' 40,"DRC-2, concentration 40",25%
same,% inhibition T4 10' 80,"DRC-2, concentration 80",26%
same,% inhibition T4 40' 2.5,"DRC-2, read at 40', concentration 2.5",13%
same,% inhibition T4 40' 5,"DRC-2, read at 40', concentration 5",12%
same,% inhibition T4 40' 10,"DRC-2, read at 40', concentration 10",20%
same,% inhibition T4 40' 20,"DRC-2, read at 40', concentration 20",27%
same,% inhibition T4 40' 40,"DRC-2, read at 40', concentration 40",30%
same,% inhibition T4 40' 80,"DRC-2, read at 40', concentration 80",35%
same,% inhibition T4 90' 2.5,"DRC-2, read at 90', concentration 2.5",13%
same,% inhibition T4 90' 5,"DRC-2, read at 90', concentration 5",11%
same,% inhibition T4 90' 10,"DRC-2, read at 90', concentration 10",20%
same,% inhibition T4 90' 20,"DRC-2, read at 90', concentration 20",26%
same,% inhibition T4 90' 40,"DRC-2, read at 90', concentration 40",29%
same,% inhibition T4 90' 80,"DRC-2, read at 90', concentration 80",37%
same,% inhibition T4 180' 2.5,"DRC-2, read at 180', concentration 2.5",11%
same,% inhibition T4 180' 5,"DRC-2, read at 180', concentration 5",10%
same,% inhibition T4 180' 10,"DRC-2, read at 180', concentration 10",18%
same,% inhibition T4 180' 20,"DRC-2, read at 180', concentration 20",25%
same,% inhibition T4 180' 40,"DRC-2, read at 180', concentration 40",28%
same,% inhibition T4 180' 80,"DRC-2, read at 180', concentration 80",37%
